The text below walks through data of patent publication US11008323B2, “Substituted tricyclic 1,4-benzodiazepinone derivatives as allosteric modulators of group II metabotropic glutamate receptors” (Domain Therapeutics, priority 2015, dated 2021).

Where a name gives a salt, the structure may show the parent alone.

Turning to `CN1C(=O)c2cc(-c3ccccc3)cn2-c2cc(-c3cccnc3)ccc2C12CC2` (as salt: hydrochloride) [Example 93, 5-Methyl-2-phenyl-9-pyridin-3-yl-spiro[benzo[f]pyrrolo[1,2-a][1,4]diazepine-6,1′-cyclopropan]-4(5H)-one], the melting point – broadly, the temperature of the solid-liquid transition – was 218 to 222 °C.

Turning to `Cc1ncccc1-c1ccc2c(c1)-n1cncc1C(=O)N(C)C2` (as salt: hydrochloride) [Example 215, 5-Methyl-9-(2-methylpyridin-3-yl)-5,6-dihydro-4H-benzo[f]imidazo[1,5-a][1,4]diazepin-4-one], the melting point fell in the range of 158 to 170 °C.

On to `CN1C(=O)c2cc(-c3ccccc3)nn2-c2cc(-c3ccc(N)nc3)ccc2C12CC2` (as salt: hydrochloride) [Example 127, 9-(6-Amino-pyridin-3-yl)-5-methyl-2-phenyl-spiro[benzo[f]pyrazolo[1,5-a][1,4]diazepine-6,1′-cyclopropan]-4(5H)-one], for which the melting point was over 250 °C.

Consider `CCc1ccc(-c2ccc3c(c2)-n2cc(-c4ccccc4)cc2C(=O)N(C)C32CC2)cn1` (as salt: hydrochloride) [Example 112, 5-methyl-2-phenyl-9-(6-ethylpyridin-3-yl)-spiro[benzo[f]pyrrolo[1,2-a][1,4]diazepine-6,1′-cyclopropan]-4(5H)-one], for which the melting point is 209 to 212 °C.

For `Cc1cnccc1-c1ccc2c(c1)-n1cccc1C(=O)N(C)C21CC1` (as salt: hydrochloride) [Example 38, 5-Methyl-9-(3-methylpyridin-4-yl)-spiro[benzo[f]pyrrolo[1,2-a][1,4]diazepine-6,1′-cyclopropan]-4(5H)-one], the melting point is over 250 °C.

As for `Cc1ncccc1-c1ccc2c(c1)-n1cc(C(F)F)cc1C(=O)N(C)C21CC1` (as salt: hydrochloride) [Example 201], the melting point fell in the range of 240 to 250 °C.

The molecule `Cc1cc(-c2ccc3c(c2)-n2nc(-c4ccccc4)cc2C(=O)N(C)C32CC2)cc(C)n1` (as salt: hydrochloride) [Example 121, 9-(2,6-Dimethyl-pyridin-4-yl)-5-methyl-2-phenyl-spiro[benzo[f]pyrazolo[1,5-a][1,4]diazepine-6,1′-cyclopropan]-4(5H)-one] displayed a melting point of over 250 °C.

Take `Cc1cc(-c2ccc3c(c2)-n2cc(-c4ccccc4)cc2C(=O)N(C)C32CC2)ccn1` (as salt: hydrochloride) [Example 105, 5-Methyl-2-phenyl-9-(2-methyl-pyridin-4-yl)-spiro[benzo[f]pyrrolo[1,2-a][1,4]diazepine-6,1′-cyclopropan]-4(5H)-one]: the melting point is 225 to 235 °C.

`CN1C(=O)c2cccn2-c2cc(-c3ccc4nccn4c3)ccc2C12CC2` (as salt: hydrochloride) [Example 41, 5-Methyl-9-(imidazo[1,2-a]pyridin-6-yl)-spiro[benzo[f]pyrrolo[1,2-a][1,4]diazepine-6,1′-cyclopropan]-4(5H)-one] showed a melting point of over 250 °C.

`CN1C(=O)c2cc(C(=O)O)cn2-c2cc(-c3ccc(F)nc3)ccc2C12CC2` [Example 177, 5-Methyl-9-(6-fluoro-pyridin-3-yl)-4-oxo-4,5-dihydrospiro[benzo[f]pyrrolo[1,2-a][1,4]diazepine-6,1′-cyclopropane]-2-carboxylic acid] gave a melting point of over 250 °C.

`Cc1ncncc1-c1ccc2c(c1)-n1cccc1C(=O)N(C)C21CC1` (as salt: hydrochloride) [Example 59, 5-Methyl-9-(4-methyl-pyrimidin-5-yl)-spiro[benzo[f]pyrrolo[1,2-a][1,4]diazepine-6,1′-cyclopropan]-4(5H)-one]: the melting point was in the range of 140 to 147 °C.

`CN1C(=O)c2cccn2-c2cc(-c3cccnc3C3CC3)ccc2C12CC2` (as salt: hydrochloride) [Example 62, 5-Methyl-9-(2-cyclopropylpyridin-3-yl)-spiro[benzo[f]pyrrolo[1,2-a][1,4]diazepine-6,1′-cyclopropan]-4(5H)-one] had a melting point of 160 to 180 °C.

The molecule `Cc1ncccc1-c1ccc2c(c1)-n1cc(-c3ccc(F)cc3)cc1C(=O)N(C)C21CC1` (as salt: hydrochloride) [Example 150] returned a melting point of 226 to 230 °C.

Consider `CN1Cc2ccc(-c3ccc(N)nc3)cc2-n2cc(-c3ccccc3)cc2C1=O` (as salt: hydrochloride) [Example 165, 9-(6-Amino-pyridin-3-yl)-5-methyl-2-phenyl-5,6-dihydro-benzo[f]pyrrolo[1,2-a][1,4]diazepin-4-one], for which the melting point is over 250 °C.

As to `Cc1cc2n(c1)-c1cc(-c3cccnc3C)ccc1C1(CC1)N(C)C2=O` (as salt: hydrochloride) [Example 144], the melting point was in the range of 162 to 175 °C.

Take `CCC1c2ccc(-c3cccnc3C)cc2-n2cccc2C(=O)N1C` (centres unmarked) (as salt: hydrochloride) [Example 220, 6-Ethyl-5-methyl-9-(2-methyl-pyridin-3-yl)-5,6-dihydro-benzo[f]pyrrolo[1,2-a][1,4]diazepin-4-one]: the melting point fell in the range of 160 to 170 °C.

For the molecule `Cc1ccncc1-c1ccc2c(c1)-n1cc(-c3ccccc3)cc1C(=O)N(C)C21CC1` (as salt: hydrochloride) [Example 101, 5-Methyl-2-phenyl-9-(4-methyl-pyridin-3-yl)-spiro[benzo[f]pyrrolo[1,2-a][1,4]diazepine-6,1′-cyclopropan]-4(5H)-one], the melting point fell in the range of 205 to 217 °C.

`CCc1ncccc1-c1ccc2c(c1)-n1cc(-c3ccccc3F)cc1C(=O)N(C)C21CC1` (as salt: hydrochloride) [Example 162] came in with a melting point of 189 to 195 °C.

`Cc1ncccc1-c1ccc2c(c1)-n1cc(CC3CCCC3)cc1C(=O)N(C)C21CC1` (as salt: hydrochloride) [Example 196] showed a melting point of 165 to 176 °C.

On to `Cc1cc(-c2ccc3c(c2)-n2cccc2C(=O)N(C)C32CC2)ccn1` (as salt: hydrochloride) [Example 26, 5-Methyl-9-(2-methylpyridin-4-yl)-spiro[benzo[f]pyrrolo[1,2-a][1,4]diazepine-6,1′-cyclopropan]-4(5H)-one], for which the melting point was in the range of 183 to 193 °C.

Turning to `Cc1ncccc1-c1ccc2c(c1)-n1cc(-c3cnc[nH]3)cc1C(=O)N(C)C21CC1` (as salt: hydrochloride) [Example 183], the melting point is over 250 °C.

On to `CCc1ncccc1-c1ccc2c(c1)-n1cc(-c3ccccc3)cc1C(=O)N(C)C21CC1` (as salt: hydrochloride) [Example 99, 5-Methyl-2-phenyl-9-(2-ethyl-pyridin-3-yl)-spiro[benzo[f]pyrrolo[1,2-a][1,4]diazepine-6,1′-cyclopropan]-4(5H)-one], for which the melting point is 179 to 183 °C.

For `Cc1cncc(-c2ccc3c(c2)-n2cc(-c4ccccc4)cc2C(=O)N(C)C32CC2)c1` (as salt: hydrochloride) [Example 98, 5-Methyl-2-phenyl-9-(5-methyl-pyridin-3-yl)-spiro[benzo[f]pyrrolo[1,2-a][1,4]diazepine-6,1′-cyclopropan]-4(5H)-one], the melting point fell in the range of 212 to 220 °C.

With `CN(C)c1ccc(-c2ccc3c(c2)-n2cc(-c4ccccc4)cc2C(=O)N(C)C32CC2)cn1` (as salt: hydrochloride) [Example 114, 5-Methyl-2-phenyl-9-(6-dimethylamino-pyridin-3-yl)-spiro[benzo[f]pyrrolo[1,2-a][1,4]diazepine-6,1′-cyclopropan]-4(5H)-one], the melting point fell in the range of 200 to 208 °C.

As for `Cc1ncccc1-c1ccc2c(c1)-n1cc(C3CCCC3)cc1C(=O)N(C)C21CC1` (as salt: hydrochloride) [Example 156], the melting point lay in the range of 230 to 235 °C.

For `CCN1Cc2ccc(-c3cccnc3C)cc2-n2cc(-c3ccccc3)nc2C1=O` (as salt: hydrochloride) [Example 167, 5-Ethyl-9-(2-methylpyridin-3-yl)-2-phenyl-5,6-dihydro-4H-benzo[f]imidazo[1,2-a][1,4]diazepin-4-one], the melting point lay within 200 to 220 °C.

On to `CCc1ncccc1-c1ccc2c(c1)-n1cc(-c3ccnn3C)cc1C(=O)N(C)C21CC1` (as salt: hydrochloride) [Example 163], for which the melting point is 187 to 192 °C.

Regarding `Cc1ccc(-c2ccc3c(c2)-n2nc(-c4ccccc4)cc2C(=O)N(C)C32CC2)c(C)n1` (as salt: hydrochloride) [Example 126, 9-(2,6-Dimethyl-pyridin-3-yl)-5-methyl-2-phenyl-spiro[benzo[f]pyrazolo[1,5-a][1,4]diazepine-6,1′-cyclopropan]-4(5H)-one], the melting point is over 250 °C.

`Cc1ncccc1-c1ccc2c(c1)-n1cc(N(C)C)cc1C(=O)N(C)C21CC1` (as salt: hydrochloride) [Example 154] yielded a melting point of 120 to 134 °C.

Take `Cc1ncccc1-c1ccc2c(c1)-n1cc(-c3ccncc3)cc1C(=O)N(C)C21CC1` (as salt: hydrochloride) [Example 145]: the melting point is over 250 °C.

Consider `COCc1cc2n(c1)-c1cc(-c3ccc(C)nc3)ccc1C1(CC1)N(C)C2=O` (as salt: hydrochloride) [Example 205], for which the melting point is 113 to 123 °C.

Take `Cc1ncccc1-c1ccc2c(c1)-n1cc(-c3ccnn3C)cc1C(=O)N(C)C21CC1` (as salt: hydrochloride) [Example 160]: the melting point lay in the range of 229 to 237 °C.

Consider `Cc1ncccc1-c1ccc2c(c1)-n1cccc1C(=O)N(C)C2(C)C` (as salt: hydrochloride) [Example 223, 5,6,6-Trimethyl-9-(2-methyl-pyridin-3-yl)-5,6-dihydro-benzo[f]pyrrolo[1,2-a][1,4]diazepin-4-one], for which the melting point was in the range of 230 to 250 °C.

With `CN1C(=O)c2cccn2-c2cc(C3=CCNCC3)ccc2C12CC2` (as salt: hydrochloride) [Example 46, 5-Methyl-9-(1,2,3,6-tetrahydro-pyridin-4-yl)-spiro[benzo[f]pyrrolo[1,2-a][1,4]diazepine-6,1′-cyclopropan]-4(5H)-one], the melting point was 208 to 215 °C.

In turn, `Cc1ccnc(C)c1-c1ccc2c(c1)-n1cccc1C(=O)N(C)C21CC1` (as salt: hydrochloride) [Example 65, 5-Methyl-9-(2,4-dimethylpyridin-3-yl)-spiro[benzo[f]pyrrolo[1,2-a][1,4]diazepine-6,1′-cyclopropan]-4(5H)-one] returned a melting point of 200 to 208 °C.
